This passage reports IC50 and viability, T/C results from PubChem BioAssay AID2060627 (Molecular Pharmacology Branch, DTP, NCI, 2025).

Each structure is given as a SMILES string. Several values for one entry are separate records, joined by “and”; a condition that tells them apart may be missing. Equal entries are not always repeated.

The subject of this assay is 156681-154-R-J1-PDC complex spheroid viability. Kind of assay: Anticancer human tumor 156681-154-R-J1-PDC patient-derived melanoma cell line growth inhibition [CLK]. The note with it: for viability, T/C: stronger effect = lower value. The method, boiled down: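 Multi-cell-type spheroids combined patient-derived tumor cells with HUVEC endothelial cells and human mesenchymal stem cells. Paired agents were dosed in half-log steps down from about clinical Cmax, or from 10 microM where Cmax was unknown.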

The mark [1] stands for this setting: curve of first compound, second compound 0.0316 µM.
[2] abbreviates: curve of first compound, second compound 0.1 µM.
Setting [3] is: curve of first compound, second compound 0.316 µM.
Setting [4] is: curve of first compound, second compound 1 µM.
Where [5] appears, read: curve of first compound, second compound 3.16 µM.
[6] abbreviates: curve of first compound, second compound 10 µM.
Setting [7] is: second compound 0.0316 µM, first compound 0.0316 µM.
Setting [8] is: second compound 0.0316 µM, first compound 0.1 µM.
Setting [9] is: second compound 0.0316 µM, first compound 0.316 µM.
Where [10] appears, read: second compound 0.0316 µM, first compound 1 µM.
Setting [11] is: second compound 0.0316 µM, first compound 3.16 µM.
Setting [12] is: second compound 0.0316 µM, first compound 10 µM.
[13] abbreviates: second compound 0.1 µM, first compound 0.0316 µM.
Setting [14] is: second compound 0.1 µM, first compound 0.1 µM.
The mark [15] stands for this setting: second compound 0.1 µM, first compound 0.316 µM.
The mark [16] stands for this setting: second compound 0.1 µM, first compound 1 µM.
The mark [17] stands for this setting: second compound 0.1 µM, first compound 3.16 µM.
[18] abbreviates: second compound 0.1 µM, first compound 10 µM.
Where [19] appears, read: second compound 0.316 µM, first compound 0.0316 µM.
Setting [20] is: second compound 0.316 µM, first compound 0.1 µM.
The mark [21] stands for this setting: second compound 0.316 µM, first compound 0.316 µM.
The mark [22] stands for this setting: second compound 0.316 µM, first compound 1 µM.
Where [23] appears, read: second compound 0.316 µM, first compound 3.16 µM.
The mark [24] stands for this setting: second compound 0.316 µM, first compound 10 µM.
[25] abbreviates: second compound 1 µM, first compound 0.0316 µM.
Setting [26] is: second compound 1 µM, first compound 0.1 µM.
Setting [27] is: second compound 1 µM, first compound 0.316 µM.
Setting [28] is: second compound 1 µM, first compound 1 µM.
[29] abbreviates: second compound 1 µM, first compound 3.16 µM.
Where [30] appears, read: second compound 1 µM, first compound 10 µM.
[31] abbreviates: second compound 3.16 µM, first compound 0.0316 µM.
The mark [32] stands for this setting: second compound 3.16 µM, first compound 0.1 µM.
Where [33] appears, read: second compound 3.16 µM, first compound 0.316 µM.
Setting [34] is: second compound 3.16 µM, first compound 1 µM.
Where [35] appears, read: second compound 3.16 µM, first compound 3.16 µM.
Where [36] appears, read: second compound 3.16 µM, first compound 10 µM.
Where [37] appears, read: second compound 10 µM, first compound 0.0316 µM.
Setting [38] is: second compound 10 µM, first compound 0.1 µM.
The mark [39] stands for this setting: second compound 10 µM, first compound 0.316 µM.
Setting [40] is: second compound 10 µM, first compound 1 µM.
The mark [41] stands for this setting: second compound 10 µM, first compound 3.16 µM.
[42] abbreviates: second compound 10 µM, first compound 10 µM.
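Also: spheroids exposed to the agents for seven days.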
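For viability, T/C in this document: 100% = DMSO vehicle control viability.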

The IC50 is the midpoint of a concentration-inhibition curve. A word on the viability, T/C: it is the ratio of treated to control. In the case of `CC(CO)NC(=O)c1cc(-c2ccc(Cl)cc2)nn(-c2cnn(C)c2)c1=O` (centres undefined) + CNC(=O)c1ccc(Nc2nc(OC3CCCC3)c3c(-c4ccc5nc(C)oc5c4)c[nH]c3n2)c(OC)c1, the IC50 is, setting by setting: under setting [1], > 10000 nM; under setting [2], > 10000 nM; under setting [3], 4910 nM; under setting [4], < 31.6 nM; under setting [5], < 31.6 nM; under setting [6], < 31.6 nM. The viability, T/C was 83.5% under setting [7]; 107% under setting [8]; 122% under setting [9]; 101% under setting [10]; 86.5% under setting [11]; 56.8% under setting [12]. The viability, T/C is, setting by setting: under setting [13], 53.1%; under setting [14], 84.6%; under setting [15], 78.9%; under setting [16], 81.7%; under setting [17], 67.2%; under setting [18], 50.6%. In addition, the viability, T/C under setting [19] was 62.9%; the viability, T/C under setting [20] is 71.4%; the viability, T/C under setting [21] is 58.8%; the viability, T/C under setting [22] is 58.8%; the viability, T/C under setting [23] was 59.3%; the viability, T/C under setting [24] is 38.2%. Also, the viability, T/C is, setting by setting: under setting [25], 50.8%; under setting [26], 42.9%; under setting [27], 37.6%; under setting [28], 44.8%; under setting [29], 39.2%; under setting [30], 35.3%. Moreover, the viability, T/C under setting [31] is 47.4%; the viability, T/C under setting [32] is 36.9%; the viability, T/C under setting [33] was 42.1%; the viability, T/C under setting [34] is 36.7%; the viability, T/C under setting [35] was 37.8%; the viability, T/C under setting [36] was 23.2%. For the same compound, the viability, T/C reads like this: under setting [37], 42.6%; under setting [38], 43.8%; under setting [39], 35.8%; under setting [40], 35.6%; under setting [41], 29.5%; under setting [42], 21.2%.

As for `O=C(c1cc(Cc2n[nH]c(=O)c3ccccc23)ccc1F)N1CCN(C(=O)C2CC2)CC1`, the viability, T/C was 92.3% and 97.7% (compound 0.0316 µM); 72.3% and 78.8% (compound 0.1 µM); 72% and 85.3% (compound 0.316 µM); 83.4% and 78.3% (compound 1 µM); 72.3% and 90.1% (compound 3.16 µM); 56.2% and 57.6% (compound 10 µM). The half-maximal inhibitory concentration (IC50) (curve of compound) was > 10000 nM.

Regarding `CC(Nc1ccc2c(c1)OCCn1cc(N3C(=O)OCC3C(F)F)nc1-2)C(N)=O` (centres undefined), the viability, T/C (compound 0.0316 µM) is 67.3% and 70.1%; the viability, T/C (compound 0.1 µM) is 65.7% and 55.4%; the viability, T/C (compound 0.316 µM) is 53.8% and 52.7%; the viability, T/C (compound 1 µM) is 39.9% and 37.6%; the viability, T/C (compound 3.16 µM) is 32.3% and 33.9%; the viability, T/C (compound 10 µM) is 23.5% and 19.5%. Besides, where the note is “curve of compound”, the 50% inhibitory concentration (IC50) is 460 nM and 305 nM.

With `CCc1c2c(nc3ccc(O)cc13)-c1cc3c(c(=O)n1C2)COC(=O)[C@]3(O)CC` + CN1CCN(c2cc(C(=O)Nc3cc4cc(-c5cnn(C)c5)ccc4cn3)ccn2)CC1, the IC50 was < 3.16 nM under setting [1]; < 3.16 nM under setting [2]; < 3.16 nM under setting [3]; < 3.16 nM under setting [4]; < 3.16 nM under setting [5]; < 3.16 nM under setting [6]. Further, the viability, T/C runs as follows: (second compound 0.0316 µM, first compound 0.00316 µM) 42.5%; (second compound 0.0316 µM, first compound 0.01 µM) 14.9%; under setting [7], 15%; under setting [8], 16.9%; under setting [9], 17.2%; under setting [10], 4.31%. The viability, T/C was 24.5% (second compound 0.1 µM, first compound 0.00316 µM); 15.2% (second compound 0.1 µM, first compound 0.01 µM); 12.1% under setting [13]; 16.4% under setting [14]; 13.9% under setting [15]; 2.11% under setting [16]. Moreover, the viability, T/C is 12.3% (second compound 0.316 µM, first compound 0.00316 µM); 12.3% (second compound 0.316 µM, first compound 0.01 µM); 14.7% under setting [19]; 5.42% under setting [20]; 1.97% under setting [21]; 1.05% under setting [22]. In addition, the viability, T/C was 0.13% (second compound 1 µM, first compound 0.00316 µM); 0.25% (second compound 1 µM, first compound 0.01 µM); 0.33% under setting [25]; 2.85% under setting [26]; 2.44% under setting [27]; 0.97% under setting [28]. The viability, T/C reads like this: (second compound 3.16 µM, first compound 0.00316 µM) 0.1%; (second compound 3.16 µM, first compound 0.01 µM) 2.44%; under setting [31], 1.86%; under setting [32], 0.73%; under setting [33], 1.39%; under setting [34], 0.88%. Moreover, the viability, T/C (second compound 10 µM, first compound 0.00316 µM) was 0.64%; the viability, T/C (second compound 10 µM, first compound 0.01 µM) was 3.44%; the viability, T/C under setting [37] is 2.3%; the viability, T/C under setting [38] is 1.35%; the viability, T/C under setting [39] is 2.63%; the viability, T/C under setting [40] is 2.01%.

For `CCc1c2c(nc3ccc(O)cc13)-c1cc3c(c(=O)n1C2)COC(=O)[C@]3(O)CC`, the viability, T/C was 38.3% and 25.9% (compound 0.00316 µM); 16.9% and 13.7% (compound 0.01 µM); 15.6% and 16.5% (compound 0.0316 µM); 21.3% and 17.4% (compound 0.1 µM); 16.8% and 17.7% (compound 0.316 µM); 4.59% and 4.21% (compound 1 µM). In addition, where the note is “curve of compound”, the half-maximal inhibitory concentration (IC50) is < 3.16 nM.

`C=C(F)C(=O)N1CCN(c2nc(OCC3CCCN3C)nc3c2CCN(c2cccc4cccc(Cl)c24)C3)CC1CC#N` (centres undefined) + CNC(=O)c1ccc(Nc2nc(OC3CCCC3)c3c(-c4ccc5nc(C)oc5c4)c[nH]c3n2)c(OC)c1: the IC50 was 1730 nM under setting [1]; 1110 nM under setting [2]; 1260 nM under setting [3]; 1020 nM under setting [4]; < 31.6 nM under setting [5]; < 31.6 nM under setting [6]. Also, the viability, T/C reads like this: under setting [7], 70.9%; under setting [8], 92.6%; under setting [9], 76.5%; under setting [10], 87.4%; under setting [11], 15.2%; under setting [12], 0.17%. Besides, the viability, T/C runs as follows: under setting [13], 45.3%; under setting [14], 56.5%; under setting [15], 54.9%; under setting [16], 59%; under setting [17], 11.4%; under setting [18], 2.23%. The viability, T/C runs as follows: under setting [19], 46.7%; under setting [20], 49.5%; under setting [21], 77.3%; under setting [22], 66.5%; under setting [23], 10%; under setting [24], 0.09%. The viability, T/C was 59.3% under setting [25]; 53.3% under setting [26]; 43.9% under setting [27]; 50.9% under setting [28]; 3.8% under setting [29]; 0.09% under setting [30]. For the same compound, the viability, T/C is 48.2% under setting [31]; 33.5% under setting [32]; 37.1% under setting [33]; 42.6% under setting [34]; 2.84% under setting [35]; 0.11% under setting [36]. Further, the viability, T/C was 39.2% under setting [37]; 37% under setting [38]; 28.7% under setting [39]; 40.4% under setting [40]; 1.02% under setting [41]; 4.8% under setting [42].

On to `COc1cccc2c1C(=O)c1c(O)c3c(c(O)c1C2=O)CC(O)(C(=O)CO)CC3OC1CC(N)C(O)C(C)O1` (centres undefined), for which the viability, T/C is, setting by setting: (compound 0.0316 µM) 37% and 29.8%; (compound 0.1 µM) 25.2% and 19.9%; (compound 0.316 µM) 9.16% and 2.97%; (compound 1 µM) 0.48% and 0.17%; (compound 3.16 µM) 1.37% and 0.12%; (compound 10 µM) 2.47% and 0.67%. Further, the IC50 (curve of compound) is < 31.6 nM.
